Laboratory results from article PMC7026418, “The kinase polypharmacology landscape of clinical PARP inhibitors” (Scientific Reports, 2020).
Where two headings read alike, the source gives them in different places.

Assays:
Test in all cases: biochemical
Parameters in all cases: DiscoveRx KINOMEscan active site-directed competition binding; percent of control kinase bound to immobilised ligand
EPHA7 = EPHA7 (Homo sapiens, UniProt Q15375)
PRKD3 = molecular target: T1, PRKD3 (Homo sapiens, UniProt O94806)
T1 sequence (O94806 1-890): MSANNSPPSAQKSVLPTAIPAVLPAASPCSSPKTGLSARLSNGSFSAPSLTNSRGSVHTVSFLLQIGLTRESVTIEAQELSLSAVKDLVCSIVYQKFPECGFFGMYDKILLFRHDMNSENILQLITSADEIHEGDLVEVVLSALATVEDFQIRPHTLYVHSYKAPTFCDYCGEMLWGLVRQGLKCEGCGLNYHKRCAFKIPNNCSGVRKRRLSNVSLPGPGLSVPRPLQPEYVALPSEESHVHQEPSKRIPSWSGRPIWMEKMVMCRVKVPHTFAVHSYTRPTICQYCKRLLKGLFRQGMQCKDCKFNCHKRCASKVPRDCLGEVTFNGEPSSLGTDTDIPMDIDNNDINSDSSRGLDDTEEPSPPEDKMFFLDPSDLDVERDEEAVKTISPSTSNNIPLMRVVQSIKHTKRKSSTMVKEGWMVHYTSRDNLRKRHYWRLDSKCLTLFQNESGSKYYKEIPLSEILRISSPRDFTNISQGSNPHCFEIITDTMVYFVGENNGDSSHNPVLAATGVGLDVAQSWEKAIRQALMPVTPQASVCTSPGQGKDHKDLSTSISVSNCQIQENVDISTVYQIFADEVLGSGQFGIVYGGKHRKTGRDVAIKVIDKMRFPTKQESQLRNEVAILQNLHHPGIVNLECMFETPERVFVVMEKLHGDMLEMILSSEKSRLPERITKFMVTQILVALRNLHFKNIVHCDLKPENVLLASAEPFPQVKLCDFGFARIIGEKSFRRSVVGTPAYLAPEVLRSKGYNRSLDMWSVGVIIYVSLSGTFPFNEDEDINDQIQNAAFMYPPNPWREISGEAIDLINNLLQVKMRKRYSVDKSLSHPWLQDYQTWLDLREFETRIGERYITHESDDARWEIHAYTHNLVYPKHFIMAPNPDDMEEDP

CSNK1A1 = CSNK1A1 (Homo sapiens, UniProt P48729)
Sequence of CSNK1A1 (P48729 whole entry): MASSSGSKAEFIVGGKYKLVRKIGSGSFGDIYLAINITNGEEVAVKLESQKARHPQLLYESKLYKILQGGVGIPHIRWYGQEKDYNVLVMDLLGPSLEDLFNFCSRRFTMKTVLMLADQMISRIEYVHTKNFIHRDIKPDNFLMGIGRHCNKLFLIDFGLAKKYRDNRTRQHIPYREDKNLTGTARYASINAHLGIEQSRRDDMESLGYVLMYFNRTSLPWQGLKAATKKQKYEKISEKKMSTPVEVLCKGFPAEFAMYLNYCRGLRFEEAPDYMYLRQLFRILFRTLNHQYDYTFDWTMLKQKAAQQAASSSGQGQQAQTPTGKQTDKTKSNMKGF

SRPK3 = SRPK3 (Homo sapiens, UniProt Q9UPE1)
Sequence of SRPK3 (Q9UPE1 whole entry): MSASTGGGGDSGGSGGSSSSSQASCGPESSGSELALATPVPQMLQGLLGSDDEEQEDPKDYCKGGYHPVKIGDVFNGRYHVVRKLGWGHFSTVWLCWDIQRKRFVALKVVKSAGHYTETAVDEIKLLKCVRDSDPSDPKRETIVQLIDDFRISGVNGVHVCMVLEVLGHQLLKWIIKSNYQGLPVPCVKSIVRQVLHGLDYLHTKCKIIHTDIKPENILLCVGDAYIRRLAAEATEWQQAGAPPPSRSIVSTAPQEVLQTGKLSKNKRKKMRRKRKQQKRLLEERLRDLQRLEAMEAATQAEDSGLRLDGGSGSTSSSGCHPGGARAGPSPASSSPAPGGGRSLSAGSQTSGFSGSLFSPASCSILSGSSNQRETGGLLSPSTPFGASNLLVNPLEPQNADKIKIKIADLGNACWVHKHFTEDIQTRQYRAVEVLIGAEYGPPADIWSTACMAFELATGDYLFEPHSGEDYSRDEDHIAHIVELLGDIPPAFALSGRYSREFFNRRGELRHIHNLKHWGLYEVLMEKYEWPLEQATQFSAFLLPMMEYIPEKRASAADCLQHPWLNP

PIK3CA(E542K) = PIK3CA(E542K) (Homo sapiens, UniProt P42336, E542K)
Sequence of PIK3CA(E542K) (P42336 whole entry E542K): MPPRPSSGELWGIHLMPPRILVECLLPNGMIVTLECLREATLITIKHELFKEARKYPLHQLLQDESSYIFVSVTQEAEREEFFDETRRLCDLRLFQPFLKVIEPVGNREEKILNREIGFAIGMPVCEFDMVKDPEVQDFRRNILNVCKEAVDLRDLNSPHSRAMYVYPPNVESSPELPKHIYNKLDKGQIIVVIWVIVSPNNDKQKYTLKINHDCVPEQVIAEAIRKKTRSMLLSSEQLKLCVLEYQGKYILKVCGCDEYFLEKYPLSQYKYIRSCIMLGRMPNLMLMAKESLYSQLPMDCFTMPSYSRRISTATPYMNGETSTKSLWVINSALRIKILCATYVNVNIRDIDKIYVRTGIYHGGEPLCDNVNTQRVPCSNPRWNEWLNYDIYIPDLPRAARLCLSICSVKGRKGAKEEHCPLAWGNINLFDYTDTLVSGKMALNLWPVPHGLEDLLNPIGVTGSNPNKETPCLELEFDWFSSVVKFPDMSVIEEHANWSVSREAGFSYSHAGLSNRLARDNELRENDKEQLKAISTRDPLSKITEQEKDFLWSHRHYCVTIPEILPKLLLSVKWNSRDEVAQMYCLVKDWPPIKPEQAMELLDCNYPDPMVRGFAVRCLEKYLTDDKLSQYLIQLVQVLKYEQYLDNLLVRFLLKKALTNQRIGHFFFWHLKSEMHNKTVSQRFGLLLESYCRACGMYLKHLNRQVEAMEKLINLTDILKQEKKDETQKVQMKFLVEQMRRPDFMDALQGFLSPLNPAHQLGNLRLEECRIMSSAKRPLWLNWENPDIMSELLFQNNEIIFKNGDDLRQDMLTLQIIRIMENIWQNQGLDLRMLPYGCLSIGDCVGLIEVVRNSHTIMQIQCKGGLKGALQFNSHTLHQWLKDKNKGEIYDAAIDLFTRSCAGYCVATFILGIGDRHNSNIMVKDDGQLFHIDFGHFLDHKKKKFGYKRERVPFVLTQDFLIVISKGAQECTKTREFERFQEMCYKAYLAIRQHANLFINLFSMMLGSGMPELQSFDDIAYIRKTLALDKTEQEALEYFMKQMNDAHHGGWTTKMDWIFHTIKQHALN

EPHA6 = molecular target: T2, EPHA6 (Homo sapiens, UniProt Q9UF33)
T2 sequence (Q9UF33 1-1036): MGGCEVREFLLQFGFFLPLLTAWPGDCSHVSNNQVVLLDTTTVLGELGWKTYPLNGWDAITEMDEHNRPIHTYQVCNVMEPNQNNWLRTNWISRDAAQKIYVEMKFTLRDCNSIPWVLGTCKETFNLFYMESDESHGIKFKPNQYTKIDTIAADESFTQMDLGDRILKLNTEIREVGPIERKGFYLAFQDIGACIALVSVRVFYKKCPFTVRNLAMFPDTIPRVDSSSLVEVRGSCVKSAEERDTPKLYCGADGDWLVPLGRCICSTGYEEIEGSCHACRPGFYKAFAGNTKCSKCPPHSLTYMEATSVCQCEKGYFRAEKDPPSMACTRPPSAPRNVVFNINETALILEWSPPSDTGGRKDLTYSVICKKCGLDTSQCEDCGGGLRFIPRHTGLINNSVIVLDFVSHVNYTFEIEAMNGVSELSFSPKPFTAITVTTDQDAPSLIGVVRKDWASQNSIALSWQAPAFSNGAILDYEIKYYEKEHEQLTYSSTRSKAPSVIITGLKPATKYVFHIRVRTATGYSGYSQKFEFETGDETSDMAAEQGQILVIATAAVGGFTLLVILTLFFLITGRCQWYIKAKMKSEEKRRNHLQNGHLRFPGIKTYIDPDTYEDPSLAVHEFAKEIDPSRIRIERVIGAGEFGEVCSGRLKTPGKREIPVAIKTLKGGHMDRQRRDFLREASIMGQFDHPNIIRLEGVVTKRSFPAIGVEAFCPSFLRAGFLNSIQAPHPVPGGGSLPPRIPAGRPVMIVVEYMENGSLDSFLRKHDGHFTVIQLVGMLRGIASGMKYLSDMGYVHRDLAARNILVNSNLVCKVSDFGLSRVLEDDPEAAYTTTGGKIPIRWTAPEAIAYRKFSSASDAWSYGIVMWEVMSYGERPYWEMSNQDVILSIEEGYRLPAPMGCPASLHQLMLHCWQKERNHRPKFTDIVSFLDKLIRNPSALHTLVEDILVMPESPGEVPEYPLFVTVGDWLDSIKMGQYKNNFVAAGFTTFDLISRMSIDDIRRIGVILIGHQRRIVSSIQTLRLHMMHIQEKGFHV

[1] = read-out: Talazoparib (BMN 673) / %Ctrl @ 10000nM
[2] = read-out: Olaparib / %Ctrl @ 10000nM
[3] = read-out: Rucaparib / %Ctrl @ 10000nM, binding competition, % of control
[4] = read-out: Niraparib (MK-4827) / %Ctrl @ 10000nM

Sequence of EPHA7 (Q15375 whole entry): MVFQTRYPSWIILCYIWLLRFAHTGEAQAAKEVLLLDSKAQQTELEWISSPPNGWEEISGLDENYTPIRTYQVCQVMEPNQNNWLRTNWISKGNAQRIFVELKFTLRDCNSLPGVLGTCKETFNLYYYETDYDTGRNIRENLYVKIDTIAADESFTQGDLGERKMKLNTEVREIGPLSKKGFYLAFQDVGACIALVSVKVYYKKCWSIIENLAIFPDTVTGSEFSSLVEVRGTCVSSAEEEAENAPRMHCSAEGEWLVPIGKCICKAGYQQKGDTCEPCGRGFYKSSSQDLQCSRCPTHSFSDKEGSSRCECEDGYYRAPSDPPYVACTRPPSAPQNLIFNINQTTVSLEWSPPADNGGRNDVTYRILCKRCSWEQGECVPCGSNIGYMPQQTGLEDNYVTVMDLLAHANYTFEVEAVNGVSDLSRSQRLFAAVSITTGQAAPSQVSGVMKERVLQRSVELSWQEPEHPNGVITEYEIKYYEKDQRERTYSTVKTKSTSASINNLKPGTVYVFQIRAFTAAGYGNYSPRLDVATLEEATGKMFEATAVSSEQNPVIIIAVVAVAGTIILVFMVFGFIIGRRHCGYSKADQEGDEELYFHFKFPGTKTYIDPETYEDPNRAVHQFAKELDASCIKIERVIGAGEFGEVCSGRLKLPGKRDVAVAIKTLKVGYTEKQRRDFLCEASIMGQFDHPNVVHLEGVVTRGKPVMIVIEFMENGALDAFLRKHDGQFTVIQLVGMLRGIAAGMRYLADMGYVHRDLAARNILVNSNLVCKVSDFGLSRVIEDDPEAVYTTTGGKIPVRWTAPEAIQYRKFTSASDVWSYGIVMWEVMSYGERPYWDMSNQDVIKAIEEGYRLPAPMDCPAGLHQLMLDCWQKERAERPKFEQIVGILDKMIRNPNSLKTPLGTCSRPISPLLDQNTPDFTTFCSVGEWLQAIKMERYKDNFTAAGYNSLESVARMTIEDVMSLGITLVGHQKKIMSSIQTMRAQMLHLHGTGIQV

In the case of `Cn1ncnc1[C@H]1c2n[nH]c(=O)c3cc(F)cc(c23)N[C@@H]1c1ccc(F)cc1` [Talazoparib], the percent of control binding at 10 µM (EPHA7; [1]) is reported as 96%, the percent of control binding at 10 µM (PRKD3; [1]) is reported as 89% and the percent of control binding at 10 µM (CSNK1A1; [1]) is reported as 73%. For the same compound, the percent of control binding at 10 µM (SRPK3; [1]) was 100%, the percent of control binding at 10 µM (PIK3CA(E542K); [1]) was 100% and the percent of control binding at 10 µM (EPHA6; [1]) was 100%.

Compound `O=C(c1cc(Cc2n[nH]c(=O)c3ccccc23)ccc1F)N1CCN(C(=O)C2CC2)CC1` [Olaparib] has a percent of control binding at 10 µM (EPHA7; [2]) of 100%, a percent of control binding at 10 µM (PRKD3; [2]) of 83% and a percent of control binding at 10 µM (CSNK1A1; [2]) of 81%. It also gave a percent of control binding at 10 µM (SRPK3; [2]) of 84%, a percent of control binding at 10 µM (PIK3CA(E542K); [2]) of 94% and a percent of control binding at 10 µM (EPHA6; [2]) of 94%.

Work on `CNCc1ccc(-c2[nH]c3cc(F)cc4c3c2CCNC4=O)cc1` [Rucaparib] yielded a percent of control binding at 10 µM (EPHA7; [3]) of 100%, a percent of control binding at 10 µM (PRKD3; [3]) of 78% and a percent of control binding at 10 µM (CSNK1A1; [3]) of 39%. For the same compound, the percent of control binding at 10 µM (SRPK3; [3]) was 85%, the percent of control binding at 10 µM (PIK3CA(E542K); [3]) was 82% and the percent of control binding at 10 µM (EPHA6; [3]) was 99%.

`NC(=O)c1cccc2cn(-c3ccc([C@@H]4CCCNC4)cc3)nc12` [Niraparib] was tested, and the percent of control binding at 10 µM (EPHA7; [4]) was 89%, the percent of control binding at 10 µM (PRKD3; [4]) was 76% and the percent of control binding at 10 µM (CSNK1A1; [4]) was 34%. It also gave a percent of control binding at 10 µM (SRPK3; [4]) of 71%, a percent of control binding at 10 µM (PIK3CA(E542K); [4]) of 100% and a percent of control binding at 10 µM (EPHA6; [4]) of 89%.
